Results reported in paper PMC9120017, “Inhibition mechanism of the chloride channel TMEM16A by the pore blocker 1PBC” (Nature Communications, 2022).
Read-outs that look alike come from different tables or passages of the source.

Target: T1, mouse TMEM16A mutant V599A (Mus musculus, UniProt Q8BHY3, V599A)
T1 construct: expressed in transfected cells; host or cells: HEK293T
T1 sequence (Q8BHY3 1-960 V599A): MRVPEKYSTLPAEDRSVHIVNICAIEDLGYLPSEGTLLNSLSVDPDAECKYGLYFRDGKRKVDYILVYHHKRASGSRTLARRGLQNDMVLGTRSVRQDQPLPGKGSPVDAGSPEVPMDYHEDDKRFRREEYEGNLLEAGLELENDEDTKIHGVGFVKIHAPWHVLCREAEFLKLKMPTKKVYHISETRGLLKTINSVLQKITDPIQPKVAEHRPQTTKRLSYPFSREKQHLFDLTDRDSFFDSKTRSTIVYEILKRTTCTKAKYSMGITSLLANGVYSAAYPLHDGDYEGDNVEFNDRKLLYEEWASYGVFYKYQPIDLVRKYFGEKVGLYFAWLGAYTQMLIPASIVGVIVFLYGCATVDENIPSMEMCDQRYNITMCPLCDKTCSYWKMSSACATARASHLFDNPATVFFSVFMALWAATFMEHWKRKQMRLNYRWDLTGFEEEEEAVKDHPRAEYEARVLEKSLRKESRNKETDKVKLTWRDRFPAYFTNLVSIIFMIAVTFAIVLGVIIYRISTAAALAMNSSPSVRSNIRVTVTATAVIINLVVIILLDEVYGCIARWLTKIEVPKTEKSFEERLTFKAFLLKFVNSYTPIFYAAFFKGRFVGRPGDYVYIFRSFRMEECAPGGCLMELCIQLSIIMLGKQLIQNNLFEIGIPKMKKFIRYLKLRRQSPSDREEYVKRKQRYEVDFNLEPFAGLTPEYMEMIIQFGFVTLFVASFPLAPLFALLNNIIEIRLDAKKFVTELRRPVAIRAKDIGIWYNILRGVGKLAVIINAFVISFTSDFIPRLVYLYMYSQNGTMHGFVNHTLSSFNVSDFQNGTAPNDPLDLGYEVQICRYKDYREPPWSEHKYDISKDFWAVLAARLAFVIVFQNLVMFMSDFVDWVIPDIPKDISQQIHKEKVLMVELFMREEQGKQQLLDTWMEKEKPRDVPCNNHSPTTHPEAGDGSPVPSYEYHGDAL
Test: Inside-out patch recording of 1PBC block, mutant V599A
Assay type: cell-based
Settings: for remaining activity at 3 µM: 1PBC conc 3; for remaining activity at 3 µM / remaining activity at 10 µM / remaining activity at 30 µM / remaining activity at 100 µM: read-out: relative current in 1PBC (avr); for remaining activity at 10 µM: 1PBC conc 10; for remaining activity at 30 µM: 1PBC conc 30; for remaining activity at 100 µM: 1PBC conc 100
Protocol: HEK293T cells (ATCC CRL-1573) were maintained in Dulbecco’s modified Eagle’s medium (DMEM; Sigma-Aldrich) supplemented with 10 U ml^−1 penicillin, 0.1 mg ml^−1 streptomycin (Sigma-Aldrich), 2 mM L-glutamine (Sigma-Aldrich), and 10% FBS (Sigma-Aldrich) in a humidified atmosphere containing 5% CO2 at 37 °C. HEK293S GnTI^− cells (ATCC CRL-3022) were maintained in HyClone HyCell TransFx-H medium (GE Healthcare) supplemented with 10 U ml^−1 penicillin, 0.1 mg ml^−1 streptomycin, 4 mM L-glutamine, 0.15% poloxamer 188 (Sigma-Aldrich), and 1% FBS in an atmosphere containing 5% CO2 at 185 rpm at 37 °C. The ac splice variant of mouse TMEM16A (UniProt ID: Q8BHY3), mouse TMEM16B (UniProt ID: Q8CFW1), or mouse TMEM16F (UniProt ID: Q6P9J9) bearing a 3C cleavage site, a Venus YFP, a Myc tag, and a Streptavidin-binding peptide (SBP) downstream of the open reading frame in a modified pcDNA3.1 vector (Invitrogen) were used as described previously[21],[31]. Mutations were introduced using a modified QuikChange method[58] and were verified by sequencing.
HEK293T cells were transfected with 3–4 μg DNA per 6 cm Petri dish using the calcium phosphate co-precipitation method and were used within 24–96 h after transfection. Recordings were performed on inside-out patches excised from HEK293T cells expressing the construct of interest. Patch pipettes were pulled from borosilicate glass capillaries (O.D. 1.5 mm, I.D. 0.86 mm, Sutter Instrument) and were fire-polished with a microforge (Narishige) before use. Pipette resistance was typically 3–8 MΩ when filled with the recording solutions detailed below. Seal resistance was typically 4 GΩ or higher. Voltage-clamp recordings were made using Axopatch 200B, Digidata 1550, and Clampex 10.7 (Molecular Devices). Analog signals were filtered with the in-built 4-pole Bessel filter at 10 kHz and were digitized at 20 kHz. Solution exchange was achieved using a gravity-fed system through a theta glass pipette mounted on an ultra-fast piezo-driven stepper (Siskiyou). […] All recordings were performed at 20 °C.
A symmetrical ionic condition was used throughout. Stock solution with Ca^2+-EGTA contained 150 mM NaCl, 5.99 mM Ca(OH)2, 5 mM EGTA, and 10 mM HEPES at pH 7.40. Stock solution with EGTA contained 150 mM NaCl, 5 mM EGTA, and 10 mM HEPES at pH 7.40. Free Ca^2+ concentrations were adjusted by mixing the stock solutions at the required ratios calculated using the WEBMAXC program (http://web.stanford.edu/~cpatton/webmaxcS.htm). Patch pipettes were filled with the stock solution with Ca^2+-EGTA, which has a free Ca^2+ concentration of 1 mM. 1PBC (ChemBridge) stock was reconstituted in anhydrous DMSO (Sigma-Aldrich) at 100 mM and stored at −20 °C. Working solutions with 1PBC were prepared by serial dilution. Unless otherwise stated, experiments were performed at a saturating Ca^2+ concentration as shown in Supplementary Table 1 and the primary data were corrected for current rundown as described previously[21],[25].
Concentration-response relations, obtained from the ratio of the I-V plots before and after the application of the blocker, were fitted to the Hill equation,1 I/Imax=1/1+IC50/[blocker]^h where I/Imax is the normalized current responses, IC50 defines the concentration at which inhibition is at its half-maximum, and h is the Hill coefficient.

SMILES: N#Cc1c(C(F)(F)F)cc(O)n2c1nc1ccccc12 [1PBC]
- IC50 (-20 mV, 15 µM Ca2+): 79.2 µM
- remaining activity at 3 µM (-20 mV): 93.7%
- remaining activity at 10 µM (-20 mV): 88.9%
- remaining activity at 30 µM (-20 mV): 74.6%
- remaining activity at 100 µM (-20 mV): 42.8%
- IC50 (-40 mV, 15 µM Ca2+): 87.5 µM
- remaining activity at 3 µM (-40 mV): 93.7%
- remaining activity at 10 µM (-40 mV): 89.2%
- remaining activity at 30 µM (-40 mV): 76.8%
- remaining activity at 100 µM (-40 mV): 45.5%
- IC50 (-60 mV, 15 µM Ca2+): 97.2 µM
- remaining activity at 3 µM (-60 mV): 94.2%
- remaining activity at 10 µM (-60 mV): 90.8%
- remaining activity at 30 µM (-60 mV): 77.7%
- remaining activity at 100 µM (-60 mV): 48.6%
- IC50 (-80 mV, 15 µM Ca2+): 104 µM
- remaining activity at 3 µM (-80 mV): 94.9%
- remaining activity at 10 µM (-80 mV): 91.7%
- remaining activity at 30 µM (-80 mV): 78.1%
- remaining activity at 100 µM (-80 mV): 50.8%
- IC50 (-100 mV, 15 µM Ca2+): 109 µM
- remaining activity at 3 µM (-100 mV): 94.9%
- remaining activity at 10 µM (-100 mV): 91.7%
- remaining activity at 30 µM (-100 mV): 78.5%
- remaining activity at 100 µM (-100 mV): 52.3%
- IC50 (-120 mV, 15 µM Ca2+): 115 µM
- remaining activity at 3 µM (-120 mV): 95.9%
- remaining activity at 10 µM (-120 mV): 93.5%
- remaining activity at 30 µM (-120 mV): 79.4%
- remaining activity at 100 µM (-120 mV): 53.3%
- IC50 (-140 mV, 15 µM Ca2+): 119 µM
- remaining activity at 3 µM (-140 mV): 96%
- remaining activity at 10 µM (-140 mV): 93.2%
- remaining activity at 30 µM (-140 mV): 79.3%
- remaining activity at 100 µM (-140 mV): 54.7%
- IC50 (V599A, V 0 mV): 69.5 µM
- IC50 (V599A, V 20 mV): 61.3 µM
- IC50 (V599A, V 40 mV): 55.5 µM
- IC50 (V599A, V 60 mV): 48.9 µM
- IC50 (V599A, V 80 mV): 45.8 µM
- IC50 (V599A, V 100 mV): 45 µM
- IC50 (V599A, V 120 mV): 45.1 µM
- IC50 (V599A, V 140 mV): 48.5 µM
- IC50 (V599A, V -20 mV): 79.2 µM
- IC50 (V599A, V -40 mV): 87.5 µM
- IC50 (V599A, V -60 mV): 97.2 µM
- IC50 (V599A, V -80 mV): 104 µM
- IC50 (V599A, V -100 mV): 109 µM
- IC50 (V599A, V -120 mV): 115 µM
- IC50 (V599A, V -140 mV): 119 µM
